According to PMC10600239, “Selective MCL-1 inhibitor ABBV-467 is efficacious in tumor models but is associated with cardiac troponin increases in patients” (Communications Medicine, 2023):

Test: Anesthetized dog cardiovascular safety pharmacology
Assay type: in vivo
Conditions: anesthetized beagle, IV 1, 3 and 10 mg/kg
Description: ABBV-467 was profiled in safety pharmacology studies in anesthetized (non-Good Laboratory Practice [GLP]) and telemetry-instrumented conscious (GLP) dog cardiovascular assays (Supplementary Table S6).
Supplementary Table S6: Maj or findings in safety pharmac ology cardiovascular studies c onduc ted with ABBV- […]
Species/Strain Route of Concentrations Sex and N Results
Administration or Doses per Group […]
Anesthetized IV 1, 3, and Male No effects up to a plasma concentration dog 10 m g/ k gN=4 o f 16 .83 µg/mL on […]
aged 8-12 months • Heart rate
• Systemic vascular resistance
At 67 .23 mg/m L, an increase in heart rate and decrease in systemic vascular
Conscious IV 0, 0.3, 1, and Male No effects on blood pressure, heart dog 3 mg/kg N=5–6a rate, or ECG parameters at any dose beagle (plasma concentration of 6.53 µg/mL at (aged 8-12 months 3-m g/ k g do s e )
ECG, electrocardiogram; IC50, half maximal inhibitory concentration; IV, intravenous; QTcV, QT interval correct ed accor ding to the Van de Water formula. No animals or data were excl uded from analysis . […] Healthy dogs, as determined by veterinary physical examination and clinical pathology, were selected for study based on availability without explicit randomization. […] Power analysis has shown a group size of 6 can statistically detect an approximately 20 % alteration in measured parameters w ith α =0.0 5. […]

In the case of Cc1c(Cl)c2c(Cl)c(C)c1-c1c(-c3ccc(F)cc3)sc3ncnc(c13)O[C@@H](C(=O)O)Cc1cc(ccc1OCc1ccnc(-c3ccc(OC[C@H]4COCCO4)cc3)n1)OC[C@@H](CN1CCN(C)CC1)O2 [ABBV-467], the “plasma concentration up to which no effects on blood pressure, heart rate, contractility, systemic vascular resistance, cardiac output, QTcV, QRS, PR interval” value is reported as 16 .83 µg/mL.
